Molecular target: T1, KRAS (Homo sapiens, UniProt P01116)
T1 construct: His6-tagged human KRas Isoform 4B (residues 1-169); His6; made in house; host or cells: E. coli BL21(DE3), PQE80 vector
Experiment: B-RAP surface immunofluorescent assay, PCC ligand KRas EC50
Assay type: binding
Details: for Avg F635, Full Centroid / Avg F635, Full Lane / avg F635, Left Part Centroid / avg F635, Middle Part Centroid / avg F635, Right Part Centroid: 10 μM KRas well of plate #1, pixel by pixel; for avg F635, Left Part Centroid: left part of centroid; for avg F635, Middle Part Centroid: middle part of centroid; for avg F635, Right Part Centroid: right part of centroid; for EC50: 13-point KRas concentration series, each point in decaplicate, Hill coefficient=1
Protocol: The barcode patterned microchip surface was partitioned into 16 individual microwells using a pre-fabricated PDMS slab. Individual biotinylated PCC candidates were complexed to specific SAC-DNA conjugates, combined into a cocktail, and then self-assembled, via DNA hybridization, onto designated barcode stripes (FIGS. 2-4). Incubation with a specific concentration of the target protein preceded incubation with a primary capture antibody and then a fluorophore-conjugated secondary detection antibody. During assay execution, each well represents a different target concentration or assay condition. Once developed, the fluorescence of the barcodes is digitized using a GenePix 4400A array scanner, with an excitation laser power optimized to a power level of 40% (60 W), which maximizes detection sensitivity while also minimizing signal saturation. Data extraction occurs using 10 μm radius circles, taken along the length of a barcode stripe. A fluorescence signal representing the average of all the pixels within a given circle is collected. A total of ten circles (data-blocks) are measured along a 180 μm span of the middle portion for each individual barcode lane in a given well. 10 μM KRas protein gave an average F635 of 47,868.7, with a standard deviation of 4154.53. 1 μM KRas protein gave an average F635 of 11437.6, with a standard deviation of 1602.202. 100 nM KRas protein gave an average F635 of 1780.6, with a standard deviation of 236.38. This illustrates the intensity across a stripe compared to the intensity from the data-block extraction. After extraction the data is background corrected. The background signal arises from (a) non-specific binding of the primary and secondary antibodies (independent of [KRas]), but can vary across different barcode stripes), and (b) non-specific binding of KRas protein ([KRas] dependent). Background (a) was assessed by measuring the average signal in the null protein well for each stripe. Background (b) was assessed by measuring the average fluorescence for the dummy ligand (Biotin* probe) that was in each well. The background subtracted data was then graphed in Graphpad Prism 7 and fitted to a sigmoidal curve (Hill coefficient=1).
Measurement of PCC Ligand KRas EC50 with the Barcode Rapid Assay Platform
Protein Incubation Buffer: Tris-buffered saline (TBS)+0.05% Tween20 (TBST)
A pre-fabricated PDMS template was aligned onto the DNA barcode microchip, and the microchip was taped into a 10 cm petri dish. The wells on the platform were wet with 50 μL PBST before filling with blocking buffer and placing into a 37° C. incubator for 1 hr. Concurrently, 40 μL 1% BSA in PBS solutions containing 750 nM of a SAC-DNA conjugate and 3.75 μM of one biotinylated PCC ligand or biotin-A20-Cy3 blank were prepared for each SAC-DNA conjugate. The biotinylated ligands were allowed to complex with the SAC protein for one hour before pooling the SAC-DNA-ligand solutions (final [SAC-DNA-ligand conjugates]=50 nM). The blocking buffer was aspirated and each well was loaded with the SAC-DNA-ligand conjugates cocktail for hybridization with the DNA barcode at 37° C. for one hour. The wells were washed with PBST (3×) before loading serially diluted solutions of KRas protein in protein buffer (0 to 400 μM). After shaking at RT for one hour, the wells were rinsed with PBST (5×), making sure to pipet up/down with the first addition of PB ST. A (100:1) dilution of CST rabbit anti-Ras Ab (#39655) in 1° ab buffer was added to each well before shaking at RT for one hour. After rinsing the wells with PBST (3×), the wells were loaded with a (200:1) dilution of Abcam goat anti-rabbit-Alexafluor 647 linked ab (ab150079) in 2° ab buffer before shaking at RT for one hour. A final rinse of the wells with PBST (3×) proceeded peeling off the PDMS slab from the barcode microchip and dipping the barcode into the following solutions: PBS, (1:1) PBS: MQ H2O, MQ H2O (2×). […]

T1 sequence (P01116 1-169 isoform P01116-2): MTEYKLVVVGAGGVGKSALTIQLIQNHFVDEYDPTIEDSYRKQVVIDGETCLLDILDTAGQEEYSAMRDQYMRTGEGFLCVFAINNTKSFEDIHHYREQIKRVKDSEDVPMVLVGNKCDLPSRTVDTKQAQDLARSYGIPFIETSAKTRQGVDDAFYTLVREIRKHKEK

Avg F635, Full Centroid | Avg F635, Full Lane | avg F635, Left Part Centroid | avg F635, Middle Part Centroid | avg F635, Right Part Centroid | EC50 | SMILES
27245 | 25079 | 23307 | 27398 | 31147 | 52.2 ± 22 µM | CC(C)[C@@H]1NC(=O)[C@@H](N)Cc2cn(nn2)CCCC[C@@H](C(=O)NCCOCCOCCOCCOCCOCCC(=O)NCCNC(=O)CCCC[C@@H]2SC[C@@H]3NC(=O)N[C@@H]32)NC(=O)[C@H](Cc2ccc(O)cc2)NC(=O)[C@@H]2CCCN2C(=O)[C@H](C(C)C)NC(=O)[C@H](CCC(=O)O)NC1=O (single isomer, unassigned) [Ligand L4b, VEVPY]
8341 | 7851 | 7918 | 8920 | 8196 |  | CC(C)[C@@H]1NC(=O)[C@H](CCC(=O)O)NC(=O)[C@H](C(C)C)NC(=O)[C@@H](N)Cc2cn(nn2)CCCC[C@@H](C(=O)NCCOCCOCCOCCOCCOCCC(=O)NCCNC(=O)CCCC[C@@H]2SC[C@@H]3NC(=O)N[C@@H]32)NC(=O)[C@@H]2CCCN2C(=O)[C@H](Cc2ccc(O)cc2)NC1=O (single isomer, unassigned) [Ligand L5a, VEVYP]
32390 | 31581 | 31947 | 32789 | 32448 |  | CC(C)[C@@H]1NC(=O)[C@H](CCC(=O)O)NC(=O)[C@H](C(C)C)NC(=O)[C@@H](N)Cc2cn(nn2)CCCC[C@@H](C(=O)NCCOCCOCCOCCOCCOCCC(=O)NCCNC(=O)CCCC[C@@H]2SC[C@@H]3NC(=O)N[C@@H]32)NC(=O)[C@@H]2CCCN2C(=O)[C@H](Cc2ccc(O)cc2)NC1=O (single isomer, unassigned) [Ligand L5b, VEVYP]

Further lines, the compound ahead of its results:

SMILES | Avg F635, Full Centroid | Avg F635, Full Lane | avg F635, Left Part Centroid | avg F635, Middle Part Centroid | avg F635, Right Part Centroid | EC50
CCC(C)[C@@H]1NC(=O)CNC(=O)[C@H](Cc2cnc[nH]2)NC(=O)[C@@H](N)Cc2cn(nn2)CCCC[C@@H](C(=O)NCCOCCOCCOCCOCCOCCC(=O)NCCNC(=O)CCCC[C@@H]2SC[C@@H]3NC(=O)N[C@@H]32)NC(=O)CNC(=O)[C@H](C(C)C)NC1=O (single isomer, unassigned) [Ligand L1b, HGIVG] | 24340 | 22519 | 21889 | 24245 | 26959 | 
CC(C)[C@@H]1NC(=O)[C@H](CCC(=O)O)NC(=O)CNC(=O)[C@@H](N)Cc2cn(nn2)CCCC[C@@H](C(=O)NCCOCCOCCOCCOCCOCCC(=O)NCCNC(=O)CCCC[C@@H]2SC[C@@H]3NC(=O)N[C@@H]32)NC(=O)[C@@H]2CCCN2C(=O)[C@H](C(C)C)NC1=O (single isomer, unassigned) [Ligand L3a, GEVVP] | 8117 | 7151 | 7137 | 8430 | 8811 | 1.49 ± 0.28 µM
CC(C)[C@@H]1NC(=O)[C@H](CCC(=O)O)NC(=O)CNC(=O)[C@@H](N)Cc2cn(nn2)CCCC[C@@H](C(=O)NCCOCCOCCOCCOCCOCCC(=O)NCCNC(=O)CCCC[C@@H]2SC[C@@H]3NC(=O)N[C@@H]32)NC(=O)[C@@H]2CCCN2C(=O)[C@H](C(C)C)NC1=O (single isomer, unassigned) [Ligand L3b, GEVVP] | 16158 | 15157 | 15070 | 16390 | 17046 | 13.7 ± 4.8 µM
CC(C)[C@@H]1NC(=O)[C@@H](N)Cc2cn(nn2)CCCC[C@@H](C(=O)NCCOCCOCCOCCOCCOCCC(=O)NCCNC(=O)CCCC[C@@H]2SC[C@@H]3NC(=O)N[C@@H]32)NC(=O)[C@H](Cc2ccc(O)cc2)NC(=O)[C@@H]2CCCN2C(=O)[C@H](C(C)C)NC(=O)[C@H](CCC(=O)O)NC1=O (single isomer, unassigned) [Ligand L4a, VEVPY] | 11363 | 10434 | 10179 | 11181 | 12764 | 9.51 ± 2.2 µM
